In paper PMC10173194 (Journal of Advanced Research, 2022):

Target: T1, PKCε (Homo sapiens, UniProt Q02156)
T1 sequence (Q02156 1-737): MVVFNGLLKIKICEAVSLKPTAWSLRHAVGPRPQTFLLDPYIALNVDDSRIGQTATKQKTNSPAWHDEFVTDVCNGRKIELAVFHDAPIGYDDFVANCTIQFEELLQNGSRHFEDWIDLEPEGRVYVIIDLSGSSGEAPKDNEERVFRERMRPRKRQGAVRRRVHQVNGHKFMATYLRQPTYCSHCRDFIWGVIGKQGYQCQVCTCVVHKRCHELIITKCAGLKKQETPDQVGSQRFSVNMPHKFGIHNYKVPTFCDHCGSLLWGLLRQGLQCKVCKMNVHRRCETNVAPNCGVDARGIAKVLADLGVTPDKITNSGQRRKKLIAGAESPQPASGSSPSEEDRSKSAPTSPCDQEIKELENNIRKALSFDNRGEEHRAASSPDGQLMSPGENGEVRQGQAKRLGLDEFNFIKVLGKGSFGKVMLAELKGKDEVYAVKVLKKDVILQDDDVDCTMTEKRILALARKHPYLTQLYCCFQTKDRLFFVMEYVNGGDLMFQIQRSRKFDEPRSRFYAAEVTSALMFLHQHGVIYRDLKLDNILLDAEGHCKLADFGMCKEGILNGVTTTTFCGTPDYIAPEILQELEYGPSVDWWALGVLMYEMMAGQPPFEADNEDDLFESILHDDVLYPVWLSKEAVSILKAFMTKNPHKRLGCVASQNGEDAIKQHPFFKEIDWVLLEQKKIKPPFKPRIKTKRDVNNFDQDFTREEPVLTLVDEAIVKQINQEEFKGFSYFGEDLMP
Assay: SPR
Type: binding

Work on `COc1cccc2c1C(=O)c1c(O)c3c(c(O)c1C2=O)C[C@@](O)(C(=O)CO)C[C@@H]3O[C@H]1C[C@H](N)[C@H](O)[C@H](C)O1` [Dox, Doxorubicin] yielded a Kd of 44.8 µM.
